# According to US7820693B2, “1-(2H)-isoquinolone derivative” (Chugai Seiyaku Kabushiki Kaisha, priority 2005, dated 2010):
# What was measured:
# [1] = tested on: human colon cancer cell line HCT116; assay: Measurement of cell growth inhibitory activity (Cell Counting Kit-8); type: cell-based; conditions: HCT-116, 96 h, HCT116, 2,000 cells/well, cultured 4 days
# Experimental: Cancer cell growth inhibitory activity was measured using Cell Counting Kit-8 manufactured by Dojindo Laboratories. The human colon cancer cell line HCT116 obtained from American Type Culture Collection (Virginia, U.S.A) was inoculated in a 96-well culture plate at a concentration of 2,000 cells/well. Thereafter, a certain concentration of compound was added thereto, and the obtained mixture was then cultured at 37° C. in 5% CO2, 95% air for 4 days. On the 4th day of the culture, a Cell Counting Kit-8 solution was added to the culture product, and absorbance (measurement wavelength: 450 nm; reference wavelength: 615 nm) was measured in accordance with protocols included with the kit. Thereafter, 50% growth inhibitory concentration (IC50) was calculated.
# [2] = tested on: human colon cancer cell line HCT116 transplanted into the inguinal subcutis; assay: Measurement of antitumor effect in tumor-bearing mouse; type: in vivo, BALB/c nude mouse; conditions: HCT116 xenograft, 300 mg/kg orally, twice (day 0 and 7 days after), vs control group
# Experimental: A representative example of the compound group of the present invention was measured in terms of antitumor effect.
# Such antitumor effect was examined, using a tumor-bearing mouse produced by transplanting the human colon cancer cell line HCT116 obtained from American Type Culture Collection (Virginia, U.S.A) into the inguinal subcutis of a BALB/c nude mouse purchased from Charles River Laboratories Japan, Inc. The purchased nude mouse was quarantined for 1 week. Thereafter, approximately 5×10^6 HCT116 cells were transplanted subcutaneously. When the size of a tumor thereof became 200 mm^3, the mouse was subjected to the present experiment.
# Each compound was suspended in a solution to be administered, and 0.2 ml of the solution was orally administered. Such administration was carried out twice in total, that is, on the initiation date of administration and 7 days after the first administration. The antitumor effect was calculated as a tumor growth inhibition by comparing the agent-treated group with a control group in terms of tumor growth, on 14 days after the initiation date of administration. Tumor growth inhibition (TGI)=(1−the tumor growth amount of agent-treated group/the tumor growth amount of control group)×100(%) The results are shown in Table 7.
# [3] = Measurement of solubility (HPLC of filtrate); conditions: for solubility at 2 h: thermodynamic from solid
# Experimental: Measurement was carried out by preparing a four-point calibration curve (4,000 μM, 1,000 μM, 250 μM, and 31.3 μM) according to the internal standard method. A sample solution (100% DMSO) was freeze-dried, and each solution was then added thereto. The obtained mixture was stirred for 2 hours. Thereafter, a solution in which the sample had been dissolved was filtrated, and the filtrate was then analyzed with an analyzer. As an analysis method, the filtrate was measured by HPLC (HPLC). As dissolving solutions, a saline solution or a 50 mM sodium citrate-HCl buffer (pH 4.0) solution were used.
# [4] = 50 mM sodium citrate-HCl buffer (pH 4.0), pH 4, aqueous buffer
SMILES,IC50 [1] [nM],further results
"CC(=O)NCC1CN(c2ccc3cc(-c4ccccc4C(F)(F)F)[nH]c(=O)c3c2)C(=O)O1 (stereo not shown) [Example 32, N-{2-oxo-3-[1-oxo-3-(2-trifluoromethylphenyl)-1,2-dihydroisoquinolin-7-yl]oxazolidin-5-ylmethyl}acetamide]",530,–
"CN1C(=O)N(c2ccc3cc(-c4ccccc4C(F)(F)F)[nH]c(=O)c3c2)C[C@@H]1COCc1ccccc1 [Example 35, 7-((R)-4-benzyloxymethyl-3-methyl-2-oxoimidazolidin-1-yl)-3-(2-trifluoromethylphenyl)-2H-isoquinolin-1-one]",960,–
"CC(C)[C@H](N)C(=O)OC[C@H]1CN(c2ccc3cc(-c4ccccc4C(F)(F)F)[nH]c(=O)c3c2)C(=O)O1.Cl [Example B9, (R)-2-oxo-3-[1-oxo-3-(2-trifluoromethylphenyl)-1,2-dihydroisoquinolin-7-yl]oxazolidin-5-ylmethyl(S)-2-amino-3-methyl-butanoate hydrochloride]",–,"solubility at 2 h [3, 4]: > 2000 µM"
"CNCC(=O)OC[C@@H]1CN(c2ccc3cc(-c4ccccc4C(F)(F)F)[nH]c(=O)c3c2)C(=O)O1.Cl [Example B20, (S)-2-oxo-3-[1-oxo-3-(2-trifluoromethylphenyl)-1,2-dihydroisoquinolin-7-yl]oxazolidin-5-ylmethyl methylaminoacetate hydrochloride]",–,"solubility at 2 h [3, 4]: > 2000 µM"
CC(C)(OC(=O)c1ccccc1C(=O)[O-])[C@@H]1CN(c2ccc3cc(-c4ccccc4C(F)(F)F)[nH]c(=O)c3c2)C(=O)O1.[Na+] [Example C6],–,"Solubility ([3]; no asterisk: saline solution, stirred 2 hours): >2000 µM"
"O=C(OCCOCCOCCOCCOCCOCCO)OC[C@@H]1CN(c2ccc3cc(-c4ccccc4C(F)(F)F)[nH]c(=O)c3c2)C(=O)O1 [Example C45, 2-[2-(2-{2-[2-(2-hydroxyethoxy)ethoxy]ethoxy}ethoxy)ethoxy]ethyl carbonate (S)-2-oxo-3-[1-oxo-3-(2-trifluoromethylphenyl)-1,2-dihydroisoquinolin-7-yl]oxazolidin-5-ylmethyl ester]",–,"solubility at 2 h ([3]; saline solution, saline or isotonic): > 2000 µM"

# Further lines, with some results ahead:
IC50 [1] [nM],SMILES,further results
200,"O=C1C=C(OCc2ccccc2)CN1c1ccc2cc(-c3ccccc3C(F)(F)F)[nH]c(=O)c2c1 [Example 8, 7-(4-benzyloxy-2-oxo-2,5-dihydropyrrol-1-yl)-3-(2-trifluoromethylphenyl)-2H-isoquinolin-1-one]",–
530,"O=C1N(CCO)CCN1c1ccc2cc(-c3ccccc3C(F)(F)F)[nH]c(=O)c2c1 [Example 9, 7-[3-(2-hydroxyethyl)-2-oxoimidazolidin-1-yl]-3-(2-trifluoromethylphenyl)-2H-isoquinolin-1-one]",–
450,"O=C(OC[C@@H]1COC(=O)N1c1ccc2cc(-c3ccccc3C(F)(F)F)[nH]c(=O)c2c1)c1ccccc1 [Example 11, (R)-2-oxo-3-[1-oxo-3-(2-trifluoromethylphenyl)-1,2-dihydroisoquinolin-7-yl]oxazolidin-4-ylmethyl benzoate]",–
300,"O=C1O[C@@H](CO)CN1c1ccc2cc(-c3ccccc3C(F)(F)F)[nH]c(=O)c2c1 [Example 14, 7-((R)-5-hydroxymethyl-2-oxooxazolidin-3-yl)-3-(2-trifluoromethylphenyl)-2H-isoquinolin-1-one]",TGI (%) obtained 14 days after administration [2]: 113%
110,"O=C1CCCN1c1ccc2cc(-c3ccccc3C(F)(F)F)[nH]c(=O)c2c1 [Example 15, 7-(2-oxopyrrolidin-1-yl)-3-(2-trifluoromethylphenyl)-2H-isoquinolin-1-one]",–
21,"O=C1O[C@H](CO)CN1c1ccc2cc(-c3ccccc3OC(F)(F)F)[nH]c(=O)c2c1 [Example 27, 7-((S)-5-hydroxymethyl-2-oxooxazolidin-3-yl)-3-(2-trifluoromethoxyphenyl)-2H-isoquinolin-1-one]",–
91,"O=C1OC(CCO)CN1c1ccc2cc(-c3ccccc3C(F)(F)F)[nH]c(=O)c2c1 (stereo not shown) [Example 29, 7-[5-(2-hydroxyethyl)-2-oxooxazolidin-3-yl]-3-(2-trifluoromethylphenyl)-2H-isoquinolin-1-one]",–
290,"O=C1OC(CN2CCOCC2)CN1c1ccc2cc(-c3ccccc3C(F)(F)F)[nH]c(=O)c2c1 (stereo not shown) [Example 33, 7-(5-morpholin-4-ylmethyl-2-oxooxazolidin-3-yl)-3-(2-trifluoromethylphenyl)-2H-isoquinolin-1-one]",–
310,"CN1C(=O)N(c2ccc3cc(-c4ccccc4C(F)(F)F)[nH]c(=O)c3c2)C[C@@H]1CO [Example 36, 7-((R)-4-hydroxymethyl-3-methyl-2-oxoimidazolidin-1-yl)-3-(2-trifluoromethylphenyl)-2H-isoquinolin-1-one]",–
